Legend:
[1] = test system: blastocysts of aged mice transplanted into pseudopregnant mice; assay: Embryo transplantation of aged mouse blastocysts into pseudopregnant mice, implantation rate and offspring acquisition rate; format: in vivo; settings: only antagonist 10 nM added (FIG. 4)
Description: (§1) Ovulated mature eggs were collected from 42-week-old aged mice and subjected to in vitro fertilization, the obtained fertilized egg (zygote) was in vitro cultured using a culture medium to which a neutralizing antibody of a candidate factor or an antagonist of a specific receptor was added, and the blastocyst reaching rate was determined in order to verify embryo development ability. The obtained blastocysts were embryo transplanted into pseudopregnant mice, for which the implantation rate and the offspring acquisition rate were examined, and the quality of embryos was further evaluated. Specifically, the experiment was carried out as follows.
After culturing for 4 days, an embryo reaching a blastocyst stage embryo was transplanted. Recipient mice were ICR female mice of 6 to 10 weeks of age, and mated with ICR male mice vasoligated on the day before a harvesting day, and an individual whose vaginal plug could be confirmed the next day was used. General anesthesia was given with somnopentyl anesthetic, and the uterus was exposed by a back dorsal incision. […] Implantation rate was calculated as the number of implantation traces/the number of embryo transplantations, and the offspring acquisition rate was calculated as the litter size/the number of implantation traces.

[2] = test system: fertilized eggs of aged mice; assay: In vitro culture of aged mouse embryo, blastocyst reaching rate; format: cell-based; settings: fertilized eggs of 42-week-old aged mice, different concentrations, cultured 4 days, control group vs drug treated group (FIG. 2)
Description: as §1
ICR female mice (CLEA Japan, Inc., Tokyo, Japan) were used as laboratory animals. The mice were bred at a room temperature of 22° C. and a humidity of 55% under light and dark environments every 12 hours. MF control diet (Oriental Yeast Co., ltd., Tokyo, Japan) was given 6 g per mouse per day. Water was allowed to be freely ingested at any time. […]
Mice past 3 weeks and 42 weeks of age confirmed the sexual cycle by vaginal smear. […] After culturing, the sperm was removed from the egg in 30 μl KSOM Medium (Merck Millipore, Darmstadt, Germany), and the number of 2 cell stage embryos was calculated at that time. […] The blastocyst reaching rate was calculated as the number of blastocysts/the number of two cell stage embryos.

[3] = test system: blastocysts of young mice transplanted into pseudopregnant mice; assay: Embryo transplantation of young mouse blastocysts obtained with added CXCL5 into pseudopregnant mice; format: in vivo
Source text: After culturing for 4 days, an embryo reaching a blastocyst stage embryo was transplanted. Recipient mice were ICR female mice of 6 to 10 weeks of age, and mated with ICR male mice vasoligated on the day before a harvesting day, and an individual whose vaginal plug could be confirmed the next day was used. General anesthesia was given with somnopentyl anesthetic, and the uterus was exposed by a back dorsal incision. The uterus was fixed with tweezers, a 30 G injection needle (Dentronics, Tokyo, Japan) was drilled at an oviduct joint, a glass capillary with blastocyst aspirated was inserted, and the embryo was transplanted into the uterus. After transplantation, the uterus was carefully returned to the body, and the retroperitoneum and the skin were sutured. At the time of transplantation, blastocysts obtained from mice of each group were transplanted into recipient mice for each individual. Cesarean section was carried out on the 19th day with the next day of egg collection as the first day. Recipient mice were euthanized and underwent laparotomy, and the uterus was extracted and the fetus was removed. Implantation rate was calculated as the number of implantation traces/the number of embryo transplantations, and the offspring acquisition rate was calculated as the litter size/the number of implantation traces.
Based on the method described in Example 2, blastocysts of the control group and the drug treated group were transplanted into pseudopregnant mice. The implantation rate and the offspring acquisition rate were then calculated.

[4] = test system: aging markers (p16, p21, p53, PAI-1, IL-6) in young mouse embryos; assay: Expression levels of aging markers in embryos by Realtime RT-PCR; format: cell-based; settings: embryos to which CXCL5 was added (n=30)
Description: (§2) In the in vitro culture system of young mouse embryo, whether or not there was a change in blastocyst reaching rate, implantation rate, offspring acquisition rate by adding the candidate factor was examined using a similar method to Example 2. Expression in the embryos of aging markers p16, p21, p53, PAI-1, and IL-6 was measured, and whether or not cell aging was induced was investigated. Specifically, the experiment was carried out as follows.
Expression levels of aging markers (p16, p21, p53, PAI-1, IL-6) in embryos to which CXCL5 was added (n=30) were measured using Realtime RT-PCR.

[5] = test system: fertilized eggs of young mice; assay: In vitro culture of young mouse embryo with added CXCL5, blastocyst reaching rate; format: cell-based; settings: vs non-added control group (FIG. 5)
Description: Mice past 3 weeks and 42 weeks of age confirmed the sexual cycle by vaginal smear. 10 IU of gonadotropin (ASKA Pharmaceutical. Co., Tokyo, Japan) was intraperitoneally administered at the time of proestrus. Cumulus oocyte complexes (COCs) were collected from a fallopian tube 15 hours after administration, and precultured for 30 minutes in 100 μl TYH medium (LSI Medience corporation, Tokyo, Japan). Meanwhile, ICR male mice (10-12 weeks old) were subjected to general anesthesia with somnopentyl anesthetic (Kyoritsuseiyaku Corporation, Tokyo, Japan), and cauda epididymis was extracted. A portion of the cauda epididymis was incised, and the internal sperm was extruded and collected. […] After culturing, the sperm was removed from the egg in 30 μl KSOM Medium (Merck Millipore, Darmstadt, Germany), and the number of 2 cell stage embryos was calculated at that time. […] The blastocyst reaching rate was calculated as the number of blastocysts/the number of two cell stage embryos.
as §2, with “Specifically, the experiment was carried out as follows.” left out

[6] = T-test *P<0.05 vs control (FIG. 7)
[7] = heat-denatured CXCL5 1,000 nM vs control group

For `O=C(Nc1ccc([N+](=O)[O-])cc1O)Nc1ccccc1Br` [antagonist, SB225002], which implantation rate [1] is on record?
The implantation rate was “tended to be higher”.

What about the offspring acquisition rate [1] of the same compound?
Its offspring acquisition rate is “tended to be higher”.

And the blastocyst reaching rate [2]?
The blastocyst reaching rate was “no significant difference”.

“CXCL5: CXCL5 (ab9803, abcam), a chemokine, added to young mouse embryo culture” was tested. Which offspring acquisition rate ([3]; CXCL5-added group vs control group (FIG. 6)) did it give?
The offspring acquisition rate was “no significant difference”.

And the implantation rate ([3]; CXCL5-added group vs control, *P<0.05 (FIG. 6))?
The implantation rate was “decreased”.

And the implantation rate ([3]; CXCL5 added at 1,000 nM vs non-addition control group (FIG. 6))?
Its implantation rate is “a significant difference was observed”.

What about the “expression level of IL-6” value [4, 6] of the same compound?
Its value is “significant increase”.

And the “expression level of PAI-1” value [4, 6]?
Its value is “significant increase”.

And the “expression level of p21” value [4, 6]?
The value was “significant increase”.

What about the “expression level of p53” value [4, 6] of the same compound?
Its value is “significant increase”.

What about the “expression level of p16” value ([4]; vs control) of the same compound?
Its value is “no significant difference”.

And the blastocyst reaching rate ([5]; CXCL5 100 nM, 300 nM, 1,000 nM, cultured 4 days)?
Its blastocyst reaching rate is “not significantly different”.

For “heat-denatured CXCL5: CXCL5 (ab9803, abcam) heat-denatured (95° C., 5 min), used at 1,000 nM”, which implantation rate [3, 7] is on record?
Its implantation rate is “no significant difference”.

What about the offspring acquisition rate [3, 7] of the same compound?
Its offspring acquisition rate is “no significant difference”.

And the blastocyst reaching rate ([5]; heat-denatured (95° C., 5 min) CXCL5 1,000 nM)?
Its blastocyst reaching rate is “not significantly different”.

— patent US11787855B2, “Egg, fertilized egg, or embryo quality improving agent” (MPO, INC., priority 2016, dated 2023)
